In patent US20030031715A1, “Pharmaceutical applications of hydrotropic agents, polymers thereof, and hydrogels thereof” (priority 2000, published 2003):
≈ marks a conversion by molar mass, not a printed value. Where two headings read alike, the source gives them in different places.

Legend:
physchem [1] = details: water
[2] = Paclitaxel aqueous solubility in the presence of hydrotropic agents, polymers and hydrogels (HPLC); details: for hydrotropic effect for paclitaxel, in words: agent concentration as printed in parentheses in the text
Description: The mobile phase consists of acetonitrile-water (45:55 v/v) with a flow rate of 1.0 ml/min.
To the filtered solution is added ethylene glycol dimethacrylate, a crosslinker at a concentration of 6 mol % to the monomer.

[3] = Water solubility (maximum solubility) of hydrotropic agents; details: for solubility: water
[4] = at 37° C.; cited from earlier work
[5] = log (CO/CW), octanol and water; cited from earlier work
physchem [6] = experiment: physchem
From the text: (§1) These compounds were also used to examine the solubility increase of other poorly soluble drugs. […] Their chemical structures are shown below: [drawing 48]

[7] = Progesterone aqueous solubility in hydrotropic solutions; type: physicochemical
From the text: as §1

Molecule | PTX Solubility [2] [µg/mL] | Water Solubility (μM) [4] [µM] | Water Solubility (μg/ml) [4] [µg/mL] | Partition Coefficient [5] | other results
NC(=O)c1cccc(C(N)=O)n1 [2,6-pyridinedicarboxamide] | 0 |  |  |  | solubility (physchem [1]): 2.5 mM (≈ 413 µg/mL)
CCN(CC)C(=O)c1cccnc1O [2-hydroxy-N,N-diethylnicotinamide] | 0 |  |  |  | solubility (physchem [1]): 200 mM (≈ 38800 µg/mL)
C=C(C)C(=O)OCCOP(=O)([O-])OCC[N+](C)(C)C [2-methacryloyloxyethyl phosphorylcholine] | 3199 |  |  |  | 
NC(=O)c1ccncc1C(N)=O [3,4-pyridinedicarboxamide] | 0 |  |  |  | solubility (physchem [1]): 25 mM (≈ 4130 µg/mL)
Nc1ccc(C(=O)O)c(O)c1 [4-aminosalicylic acid] |  |  |  |  | solubility (physchem [1]): 5 mM (≈ 766 µg/mL)
CCN(CC)C(=O)c1ccc(=O)[nH]c1 [6-Hydroxy-N,N-diethylnicotinamide] |  |  |  |  | solubility [3]: 2000 mM (≈ 388000 µg/mL)
CN(C)CCCN1c2ccccc2Sc2ccc(Cl)cc21 [Chlorpromazine] |  | 94.1 | 30.0 | 3.17 | 
C(=C\c1ccccc1)/CN1CCN(C(c2ccccc2)c2ccccc2)CC1 [Cinnarizine] |  | <1.0 | <0.4 |  | 
C[C@@H]1C[C@H]2[C@@H]3CCC4=CC(=O)C=C[C@]4(C)[C@@]3(F)[C@@H](O)C[C@]2(C)[C@@]1(O)C(=O)CO [Dexamethasone] |  | 25.5 | 10.0 | 1.95 | 
O=C(O)Cc1ccccc1Nc1c(Cl)cccc1Cl [Diclofenac] |  | 10.1 | 3.0 | 1.12 | 
CC/C(=C(/CC)c1ccc(O)cc1)c1ccc(O)cc1 [Diethylstilbestrol] |  | 7.5 | 2.0 | 4.50 | 
C[C@H]1O[C@@H](O[C@H]2[C@@H](O)C[C@H](O[C@H]3[C@@H](O)C[C@H](O[C@H]4CC[C@@]5(C)[C@H](CC[C@@H]6[C@@H]5C[C@@H](O)[C@]5(C)[C@@H](C7=CC(=O)OC7)CC[C@]65O)C4)O[C@@H]3C)O[C@@H]2C)C[C@H](O)[C@@H]1O [Digoxin] |  | 38.4 | 30.0 | 1.26 | 
C[C@]12CC[C@@H]3c4ccc(O)cc4CC[C@H]3[C@@H]1CCC2=O [Estrone] |  |  |  | 3.69 | 
Fc1ccc(C(c2ccc(F)cc2)N2CCN(C/C=C/c3ccccc3)CC2)cc1 [Flunarizine] |  | 1.0 | 0.4 | 4.70 | 
COC1=CC(=O)C[C@@H](C)[C@]12Oc1c(Cl)c(OC)cc(OC)c1C2=O [Griseofulvin] |  | 19.8 |  | 2.07 | Griseofulvin aqueous solubility (physchem [6]): 7 µg/mL; solubility (physchem [6]; 37 °C, water): 7 µg/mL (≈ 19.8 µM)
C[C@]12CCC(=O)C=C1CC[C@@H]1[C@@H]2[C@@H](O)C[C@@]2(C)[C@H]1CC[C@]2(O)C(=O)CO [Hydrocortisone] |  |  |  | 1.52 | 
COc1ccc2c(c1)c(CC(=O)O)c(C)n2C(=O)c1ccc(Cl)cc1 [Indomethacin] |  | 55.9 | 20.0 | 4.27 | 
CCC(C)n1ncn(-c2ccc(N3CCN(c4ccc(OCC5COC(Cn6cncn6)(c6ccc(Cl)cc6Cl)O5)cc4)CC3)cc2)c1=O (centres unmarked) [Itraconazole] |  | 2.8 | 2.0 | 5.66 | 
COC(=O)Nc1nc2ccc(C(=O)c3ccccc3)cc2[nH]1 [Mebendazole] |  |  |  | 2.83 | 
CCN(CC)C(=O)c1cccnc1 [N,N-diethylnicotinamide] |  |  |  |  | hydrotropic property relative to N,N-dimethylnicotinamide [2]: > 20 times
C=CC(=O)NC(C)C [N-isopropylacrylamide] |  |  |  |  | hydrotropic effect for paclitaxel, in words [2]: very small hydrotropic effects
CNC(C)=O [N-methylacetamide] |  |  |  |  | hydrotropic effect for paclitaxel, in words [2]: very small hydrotropic effects; PTX Solubility ([2]; hydrotropic agent […]): 12 µg/mL
COC(=O)C1=C(C)NC(C)=C(C(=O)OCCN(C)Cc2ccccc2)C1c1cccc([N+](=O)[O-])c1 (centres unmarked) [Nicardipine] |  | 7.1 | 3.4 | 3.62 | 
COC(=O)C1=C(C)NC(C)=C(C(=O)OC)C1c1ccccc1[N+](=O)[O-] [Nifedifine] |  | 28.9 | 10.0 | 2.20 | 
C#C[C@]1(O)CC[C@H]2[C@@H]3CCC4=CC(=O)CC[C@@H]4[C@H]3CC[C@@]21C [Norethindrone] |  |  |  | 3.15 | 
CCOc1ccc(NC(C)=O)cc1 [Phenacetin] |  |  |  | 1.55 | 
O=C1NC(=O)C(c2ccccc2)(c2ccccc2)N1 [Phenytoin] |  | 79.3 | 20.0 | 2.47 | 
O=c1[nH]c2ccccc2n1C1CCN(CCCC(c2ccc(F)cc2)c2ccc(F)cc2)CC1 [Pimozide] |  | 2.2 | 1.0 | 4.50 | 

Molecule | PTX Solubility [2] [µg/mL] | Water Solubility (μM) [4] [µM] | Water Solubility (μg/ml) [4] [µg/mL] | Partition Coefficient [5] | other results
CC(=O)[C@H]1CC[C@H]2[C@@H]3CCC4=CC(=O)CC[C@]4(C)[C@H]3CC[C@]12C [Progesterone] |  | 3.8 |  | 3.84 | Progesterone solubility in hydrotropic solutions ([7]; 0.0 M, 37° C., mean ±SD, n=3): 0.0012 ± 0.0000; solubility ([7]; 37 °C, 0 M, control in pure water, read-out: Progesterone aqueous solubility): 1.2 µg/mL (≈ 3.82 µM); solubility ([7]; water without hydrotropic agent, water, 0.0 M, 37° C., mean ±SD, n=3, read-out: Progesterone solubility in hydrotropic solutions): 1.2 µg/mL (≈ 3.82 µM)
CO[C@H]1C[C@@H]2CC[C@@H](C)[C@@](O)(O2)C(=O)C(=O)N2CCCC[C@H]2C(=O)O[C@H]([C@H](C)C[C@@H]2CC[C@@H](O)[C@H](OC)C2)CC(=O)[C@H](C)/C=C(\C)[C@@H](O)[C@@H](OC)C(=O)[C@H](C)C[C@H](C)/C=C/C=C/C=C/1C [Rapamycin] |  | 3.3 | 3.0 |  | 
COC(=O)[C@H]1[C@H]2C[C@@H]3c4[nH]c5cc(OC)ccc5c4CCN3C[C@H]2C[C@@H](OC(=O)c2cc(OC)c(OC)c(OC)c2)[C@@H]1OC [Reserpine] |  | 1.6 | 1.0 | 3.73 | 
Cc1ccc(S(=O)(=O)[O-])cc1.[Na+] [Sodium p-toluenesulfonate] |  |  |  |  | solubility [3]: 2500 mM
Cc1ccc(S(=O)(=O)[O-])c(C)c1.[Na+] [Sodium xylenesulfonate] |  |  |  |  | solubility [3]: 2500 mM
CC(=O)S[C@@H]1CC2=CC(=O)CC[C@]2(C)[C@H]2CC[C@@]3(C)[C@@H](CC[C@@]34CCC(=O)O4)[C@H]12 [Spironolactone] |  | 72.0 | 30.0 | 2.78 | 
CC(C)(C)c1ccc(C(O)CCCN2CCC(C(O)(c3ccccc3)c3ccccc3)CC2)cc1 (centres unmarked) [Terfenadine] |  | 152.8 | 72.1 | 4.05 | 
O=C1CCC(N2C(=O)c3ccccc3C2=O)C(=O)N1 (centres unmarked) [Thalidomide] |  | 77.5 | 20.0 | 0.64 | 
CCCCNC(=O)NS(=O)(=O)c1ccc(C)cc1 [Tolbutamide] |  | 202.6 | 54.8 |  | 
CN1CCN(CCCN2c3ccccc3Sc3ccc(C(F)(F)F)cc32)CC1 [Trifluoperazine] |  |  |  | 4.15 | 
Nc1ncnc2c1ncn2[C@@H]1O[C@H](CO)[C@@H](O)[C@H]1O [adenosine] |  |  |  |  | solubility (physchem [1]): 5 mM (≈ 1340 µg/mL)
CC(C)N(C(=O)c1cccnc1)C(C)C [diisopropylnicotinamide, N,N-diisopropylnicotinamide] |  |  |  |  | solubility (physchem [1]): 50 mM (≈ 10300 µg/mL)
CC(=O)OCC(COC(C)=O)OC(C)=O [glyceryl triacetate] |  |  |  |  | solubility (physchem [1]): 200 mM
O=C1NS(=O)(=O)c2ccccc21 [o-benzoic acid sulfimide] |  |  |  |  | maximum solubility (water solubility) of the hydrotropic agent ([3]; in water): 10 mM
NC(N)=O [urea] | 1 |  |  |  | 
Pluronic F127 | 66 |  |  |  | 
Pluronic P85 | 118 |  |  |  | 
Poly(2-methacryloyloxyethyl phosphorylcholine-co-N-isopropylacrylamide) | 42 |  |  |  | 
Poly(6-allyloxy-N,N-diethylnicotinamide) | 149 |  |  |  | 
Poly(N-allylnicotinamide) | 253 |  |  |  | 
Poly(Sodium 4-acrylamidosalicylate) | 28 |  |  |  | 
Poly(Sodium 5-acrylamidosalicylate) | 0 |  |  |  | 
Poly(sodium 6-allyloxynicotinic acid) | 3 |  |  |  | 
Polyvinylpyrrolidone K-25 | 3 |  |  |  | 
Polyvinylpyrrolidone K-30 | 1 |  |  |  | 
Polyvinylpyrrolidone K-90 | 2 |  |  |  | 
Polyvinylpyrrolidone K- 17 | 0 |  |  |  | 
